“Also recorded” adds a separate entry of the source.
How the values were obtained:
alveolar macrophages = assay: Reconstitution of adherence of B. pertussis mutant BP101/TOX6 to macrophages by exogenous PT and subunits; type: cell-based; settings: PT component 50 ug/ml coated on BP101/TOX6; 10^7 bacteria, 10^5 rabbit alveolar macrophages, 3 hours; mean ± standard deviation
Description: (§1) The ability of PT or the individual subunits to act as adhesins for PT-deficient bacteria to eukaryotic cells was assessed as described by Tuomanen et al (1985). Infect. Dis. 153, 118-125 and Relman et al (199) Cell 61, 1375-1382. […] For the test reported in Table 1 PT or its individual subunits (50 ug/ml) were incubated for 30 minutes with strain BPTOX6 for ciliated cell assays or BP101/TOX6 for macrophage assays in order to coat the bacteria with adhesin. 10^7 bacteria were then incubated for 3 hours with 10^5 ciliated cells or alveolar macrophages harvested from healthy rabbits (2,4). Adherence was detected by staining of the bacteria with a 1:40 dilution of fluorescein conjugated anti-Bordetella antibody (Difco, Detroit, Mich.). Values are expressed as the mean ±standard deviation of the number of bacteria per eukaryotic cell, 25 cells/test, and each test repeated in triplicate. The procedure is described in more detail in Saukkonen et al Proc. Natl. Acad. Sci. 89,118-122 (1991).

ciliated cells = assay: Reconstitution of adherence of B. pertussis mutant BPTOX6 to ciliated cells by exogenous PT and subunits; type: cell-based; settings: PT component 50 ug/ml coated on BPTOX6; 10^7 bacteria, 10^5 rabbit ciliated cells, 3 hours; mean ± standard deviation
Description: as §1

ELAM = assay: Assay 1: inhibition of adherence of neutrophils to ELAM-coated surfaces (FIG. 4); type: cell-based; settings: protein at 50 ug/ml, compared to buffer control
Description: (§2) In the study, the proteins PT, B-oligomer, S2, S3, S2/S3 and S3/S2 were taken up in an isotonic buffered tissue culture medium to a concentration of 50 ug/ml and the ability of each of them to inhibit adhesion of neutrophils to ELAM or GMP140 was determined as described by Wright et al J. Exp. Med. 158:2016 (1983). The buffer was employed as the control and each protein studied was compared to the control for the ability to decrease adhesion capacity.
Assay 1 is inhibition of adherence of enutrophils to ELAM-coated surfaces as described in connection with FIG. 4. Values ±20% inhibition are significant.

GMP140 = assay: Inhibition of adhesion of neutrophils to GMP140 (FIG. 4B); type: cell-based; settings: protein at 50 ug/ml, compared to buffer control
Description: as §2

[1] = Carbohydrate recognition: binding to glycolipids separated by thin layer chromatography (FIG. 3)
Description: The variability in the S2 and S3 segments shown in FIG. 1 SEQ ID NOS:42-47 is, quite clearly responsible for the variation in carbohydrate binding properties of PT, S2 and S3 which have been observed.
The peptides S2/S3 and S3/S2 are novel therapeutic agents and are specifically included within the scope of this invention, as are the genes which express them.
In FIG. 3, the dark bars represent the positions of glycolipids after separation by thin layer chromatography in accordance with the method of Tuomanen et al, J. Exp Med 168:267, 1988.

[2] = test system: leukocytes in cerebrospinal fluid; assay: Rabbit model of pneumococcal meningitis: leukocytes in cerebrospinal fluid (FIG. 6b, 7B); type: in vivo; settings: rabbits with established pneumococcal meningitis; intravenous PT or B-oligomer
Description: This is shown experimentally in FIG. 6b. In the experiments rabbits with established pneumonococcal meningitis received intravenous PT or B-oligomer.
FIG. 7B illustrates the use of anti S-segment antibodies to decrease the inflammation in a rabbit model of meningitis. Rabbits with established pneumonococcal meningitis received antibodies to intact PT or PT subunits: S2:3A12, S3:6F8 and S4:9C6.

## pertussis toxin [PT]
Alveolar macrophages
  Number of bacteria/target cell, Macrophage: 21 ± 2.3 bacteria/target cell
Ciliated cells
  Number of bacteria/target cell, Ciliated Cell: 6.7 ± 0.8 bacteria/target cell
ELAM
  inhibition of neutrophil/leukocyte adherence to ELAM: 60%
GMP140
  inhibition of neutrophil adhesion to GMP140: 30%
[1]
  carbohydrates (glycolipids) recognized: binds to lactosylceramide, glucosylceramide, sulfatides and gangliosides; also recorded: recognize lactosylaceramide, and gangliosides
[2]
  accumulation of leukocytes in cerebrospinal fluid: decreased the accumulation of leukocytes in cerebrospinal fluid

From patent US5817617A, “Selectin and pertussis toxin derived peptides and uses thereof” (The Rockefeller University, priority 1994, dated 1998)
